The subject of one series is adipocytes. Kind of series: Triglyceride accumulation assay in adipocytes. It counts as cell-based, human. The following applies: differentiating adipocytes transfected with oligomeric compound.
A further series has as its system aP2. In words: aP2 mRNA expression in adipocytes (real-time PCR). Type of series: cell-based, human. The following applies: differentiating adipocytes transfected with oligomeric compound.
Another series concerns HSL. Kind of series: HSL mRNA expression in adipocytes (real-time PCR). Type of series: cell-based, human. The following applies: differentiating adipocytes transfected with oligomeric compound.
Another series relates to Glut4. Kind of series: Glut4 mRNA expression in adipocytes (real-time PCR). It counts as cell-based, human. Conditions: differentiating adipocytes transfected with oligomeric compound.
A further series concerns PPARγ. Kind of series: PPARγ mRNA expression in adipocytes (real-time PCR). Conditions: differentiating adipocytes transfected with oligomeric compound. Type of series: cell-based, human.
Series [1] concerns BJ, B16-F10, T47D, T47Dp53 and HeLa cells. In words: Cell cycle assay (propidium iodide flow cytometry), cell line panel. It counts as cell-based. The following applies: 150 nM oligomeric compound, 4.5 μg/ml LIPOFECTIN, after 72 hours, propidium iodide flow cytometry.
Another series deals with HuVECs. Kind of series: Endothelial tube formation assay in HuVECs. Conditions: for % Activity Relative to UTC (tube formation): 75 nM oligomeric compound; for tube formation: 75 nM.
The next series concerns PEPCK-c. In words: PEPCK-c mRNA expression in HepG2 cells. It counts as cell-based, human. The following applies: 100 nM; for decrease in PEPCK-c mRNA: HepG2, basal (no insulin).
For the next series, the system named is IL-12 mRNA. Kind of series: IL-12 mRNA in LPS-activated primary murine macrophages. Type of series: cell-based, mouse. The following applies: normalized to LPS-treated cells without oligomeric compound. The method, then:
To investigate the role of miRNAs in the immune response, oligomeric compounds of the present invention targeting miRNAs were tested for their effects upon lipopolysaccharide (LPS)-activated primary murine macrophages. Macrophages participate in the immune response, for example, in the recognition and phagocytosis of microorganisms, including bacteria. Interferon-gamma (IFN-gamma) released by helper T cells is one type of signal required for macrophage activation, and LPS can serve as an additional stimulus. LPS is a component of the gram-negative bacterial cell wall and acts as an agonist for toll-like receptor 4 (TLR4), the primary LPS receptor expressed by macrophages. The proinflammatory cytokines interleukin-12 (IL-12) and interleukin-6 (IL-6) are induced by LPS treatment of macrophages, thus the expression of the mRNAs encoding these cytokines was used to evaluate the response of macrophages to LPS following treatment with oligomeric compounds targeting miRNAs.
Macrophages were isolated as follows. Female C57B1/6 mice (Charles River Laboratories, Wilmington, Mass.) were injected intraperitoneally with 1 ml 3% thioglycollate broth (Sigma-Aldrich, St. Louis, Mo.), and peritoneal macrophage cells were isolated by peritoneal lavage 4 days later. The cells were plated in 96-well plates at 40,000 cells/well for one hour in serum-free RPMI adjusted to contain 10 mM HEPES (Invitrogen Life Technologies, Carlsbad, Calif.), allowed to adhere, then non-adherent cells were washed away and the media was replaced with RPMI containing 10 mM HEPES, 10% FBS and penicillin/streptomycin (“complete” RPMI; Invitrogen Life Technologies, Carlsbad, Calif.).
Oligomeric compounds were introduced into the cells using the non-liposomal transfection reagent FuGENE 6 Transfection Reagent (Roche Diagnostics Corp., Indianapolis, Ind.). Oligomeric compound was mixed with FuGENE 6 in 1 mL of serum-free RPMI to achieve a concentration of 10 μL FuGENE per 1000 nM oligomeric compound. The oligomeric compound/FuGENE complex was allowed to form at room temperature for 20 minutes. This mixture was diluted to the desired concentration of oligomeric compound by the addition of the appropriate volume of complete RPMI. The final ratio of FuGENE 6 to oligomeric compound was 1 μL of FuGENE 6 per 100 nM oligomeric compound. A volume of 100 μL of oligomeric compound/FuGENE/RPMI was added to each well of the 96-well plate in which the macrophages were cultured. Each oligomeric compound treatment was repeated in triplicate.
Following oligomeric compound treatment, cells were stimultated with LPS. Cells were cultured in the presence of the transfection complex for approximately 24 to 28 hours at 37° C. and 5% CO2, after which the medium containing the transfection complex was removed from the cells, and complete RPMI containing 100 ng/mL LPS (Sigma-Aldrich Corp., St. Louis, Mo.) was added to the cells for a period of approximately 24 hours. Control samples included (1) cells receiving no oligomeric compound, stimulated with LPS and (2) cells receiving neither oligomeric compound nor LPS treatment.
In another embodiment, following oligomeric compound treatment, cells were first activated by IFN-gamma, to amplify the response to LPS. Cells were cultured in the presence of the transfection complex for approximately 24 hours at 37° C. and 5% CO2, at which point the medium containing the transfection complex was removed from the cells, and complete RPMI containing 100 ng/mL recombinant mouse IFN-gamma (R&D Systems, Minneapolis, Minn.) was added to the cells. After the 4 hour treatment with INF-gamma, cells were treated with 100 ng/mL LPS for approximately 24 hours. Control samples included (1) cells receiving no oligomeric compound, stimulated with LPS and (2) cells receiving neither oligomeric compound nor LPS treatment. […]

In the oligonucleotide strings, read from the 5' end, every base follows the letter of its sugar. An asterisk marks phosphorothioate; unmarked linkages are phosphodiester. Other units and linkages are bracketed, terminal groups are in braces. A string of capitals states the bases alone. e = 2'-O-(2-methoxyethyl) (MOE); [5mC] = 5-methylcytosine

Protocol for HuVECs: In some embodiments, HUVECs are used to measure the effects of oligomeric compounds of the invention on endothelial tube formation activity. The tube formation assay is performed using an in vitro Angiogenesis Assay Kit (Chemicon International, Temecula, Calif.).
Untreated control cells receive LIPOFECTIN™ only.
Approximately fifty hours after transfection, cells are transferred to 96-well plates coated with ECMatrix™ (Chemicon International). Under these conditions, untreated HUVECs form tube-like structures. After an overnight incubation at 37° C., treated and untreated cells are inspected by light microscopy. Tube formation in cells treated with oligomeric compounds is compared to that in untreated control cells. Individual wells are assigned discrete scores from 1 to 5 depending on the extent of tube formation. A score of 1 refers to a well with no tube formation while a score of 5 is given to wells where all cells are forming an extensive tubular network.
In one embodiment, primary human umbilical vein endothelial cells (HuVECs) were used to measure the effects of oligomeric compounds targeted to miRNAs on tube formation activity. HuVECs were routinely cultured in EBM (Clonetics Corporation, Walkersville, Md.) supplemented with SingleQuots supplements (Clonetics Corporation, Walkersville, Md.). […] HuVECs are plated at 3000 cells/well in 96-well plates. One day later, cells are transfected with oligomeric compounds. The tube formation assay is performed using an in vitro Angiogenesis Assay Kit (Chemicon International, Temecula, Calif.).
ISIS 29248 and ISIS 196103 are chimeric 5-10-52′-MOE gapmer oligonucleotides. […] All cytidine residues are 5-methylcytidines. ISIS 342672 (SEQ ID NO: 789) contains 13 mismatches with respect to the mature mir-143 miRNA, and was also used as a negative control. ISIS 342672 is a uniform 2′-MOE phosphorothioate oligomeric compound 22 nucleotides in length. All cytidine residues are 5-methylcytidines.
Oligomeric compound was mixed with LIPOFECTIN™ (Invitrogen Life Technologies, Carlsbad, Calif.) in OPTI-MEM™ (Invitrogen Life Technologies, Carlsbad, Calif.) to achieve a final concentration of 75 nM of oligomeric compound and 2.25 μg/mL LIPOFECTIN™. Before adding to cells, the oligomeric compound, LIPOFECTIN™ and OPTI-MEM™ were mixed thoroughly and incubated for 0.5 hrs. Untreated control cells received LIPOFECTIN™ only. […] Compounds targeted to miRNAs were tested in triplicate, and ISIS 29848 was tested in up to six replicates. […] 100 μL of full growth medium was added to each well. Fifty hours after transfection, cells are transferred to 96-well plates coated with ECMa-trix™ (Chemicon Inter-national). Under these conditions, untreated HuVECs form tube-like structures.

On to “327909 (antisense e[5mC]*e[5mC]*e[5mC]*eA*eA*e[5mC]*eA*eA*e[5mC]*eA*eT*eG*eA*eA*eA*e[5mC]*eT*eA*e[5mC]*e[5mC]*eT*eA) [compound 327909]”, for which, in the series with adipocytes, the “TG (triglyceride accumulation)” value is listed as 132 percentage of untreated control (UTC). The “AP2 mRNA” value with aP2 is recorded as 88 percentage of untreated control (UTC). The “HSL mRNA” value in the series with HSL is on record as 130 percentage of untreated control (UTC). The “GLUT4 mRNA” value in the series with Glut4 is 132 percentage of untreated control (UTC). Moreover, the “PPAR gamma mRNA” value in the series on PPARγ was 96 percentage of untreated control (UTC). In series [1], the “G1 (percentage of cells in phase of the cell cycle)” value came to 52.6%, the “G2/M (percentage of cells in phase of the cell cycle)” value is given as 17.3%, the “S (percentage of cells in phase of the cell cycle)” value is given as 30.1% and the “SubG1 (percentage of cells in phase of the cell cycle)” value came out at 7.9%. Besides, the “aneuploid (percentage of cells)” value in [1] is 16.3%. Besides, the “% Activity Relative to UTC (tube formation)” value with HuVECs (Table 57) came out at 96.6%.

As for “CAGTGAATTCTACCAGTGCCATA (anti-miR; chemistry not fully specified) [ISIS 327899]”, in the series on PEPCK-c, the “decrease in PEPCK-c mRNA” value worked out at 58%. Besides, the tube formation result in the series with HuVECs was “suppressed tube formation”.

Regarding “CGCGTACCAAAAGTAATAATG (anti-miR; chemistry not fully specified) [ISIS 327886]”, the “decrease in PEPCK-c mRNA” value in the series with PEPCK-c came out at 39%. Further, the tube formation entry in the series with HuVECs is given as “suppressed tube formation”.

With “GAGACCCAGTAGCCAGATGTAGCT (chemistry not given here) [ISIS 327920]”, in the series with PEPCK-c (HepG2, 1 nM insulin), the “reduction of PEPCK-c mRNA expression” value worked out at 41%. Moreover, the “decrease in PEPCK-c mRNA” value in the series on PEPCK-c was determined as 48%. In the series on HuVECs, the tube formation entry is listed as “suppressed tube formation”.

“327883 (antisense e[5mC]*eA*eG*eA*eA*e[5mC]*eT*eT*eA*eG*e[5mC]*e[5mC]*eA*e[5mC]*eT*eG*eT*eG*eA*eA) [compound 327883]”: the “IL-12 mRNA expression, −IFN % UTC” value with IL-12 mRNA (300 nM oligomeric compound and LPS, no IFN-gamma pretreatment, single experiment) is on record as 266 % UTC. Moreover, in the series with IL-12 mRNA (300 nM oligomeric compound, stimulation with IFN-gamma and LPS, average of 2 experiments), the “IL-12 mRNA expression, +IFN % UTC” value is reported as 39 % UTC. Also, the “% Activity Relative to UTC (tube formation)” value in the series on HuVECs (Table 56) was 92.9%.

Values taken from patent US8178506B2, “Oligomeric compounds and compositions for use in modulation of small non-coding RNAs” (Regulus Therapeutics Inc., priority 2003, dated 2012).
